Experimental data from PubChem BioAssay AID248 (DTP/NCI, 2004).
“And” between values parts separate entries of the source, which are not always exact repeats. Identical values can stand only once. Toxic doses and inconclusive results are not listed. Rule as the data show it: active = T/C of 150% or more; inactive = T/C below 125%.

Test system: L1210 leukemia ip in BDF1 mice, survival T/C
Assay: NCI In Vivo Anticancer Drug Screen. Data for tumor model L1210 Leukemia (intraperitoneal) in B6D2F1 (BDF1) mice
Settings: endpoint: mean survival time, higher = longer survival
How it was run: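 Mice bearing the transplanted tumor received compound or vehicle. Survival of the treated group was divided by that of the vehicle-treated control group to give the ratio.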

[1] = dose: 100.0 mg/kg/injection, schedule: Q04DX002 (ip), vehicle: saline with Tween-80
[2] = dose: 200.0 mg/kg/injection, schedule: Q04DX002 (ip), vehicle: saline with Tween-80
[3] = dose: 400.0 mg/kg/injection, schedule: Q04DX002 (ip), vehicle: saline with Tween-80
[4] = dose: 100.0 mg/kg/injection, schedule: Q04DX003 (ip), vehicle: saline with Tween-80
[5] = dose: 200.0 mg/kg/injection, schedule: Q04DX003 (ip), vehicle: saline with Tween-80
[6] = dose: 100.0 mg/kg/injection, schedule: Q01DX001 (ip), vehicle: Klucel (hydroxypropylcellulose) (HPC)
[7] = dose: 200.0 mg/kg/injection, schedule: Q01DX001 (ip), vehicle: Klucel (hydroxypropylcellulose) (HPC)
[8] = dose: 400.0 mg/kg/injection, schedule: Q01DX001 (ip), vehicle: Klucel (hydroxypropylcellulose) (HPC)
[9] = dose: 50.0 mg/kg/injection, schedule: Q01DX009 (ip), vehicle: saline with Tween-80
[10] = dose: 100.0 mg/kg/injection, schedule: Q01DX001 (ip), vehicle: saline
[11] = dose: 100.0 mg/kg/injection, schedule: Q01DX009 (ip), vehicle: saline with Tween-80
[12] = dose: 200.0 mg/kg/injection, schedule: Q01DX001 (ip), vehicle: saline
[13] = dose: 200.0 mg/kg/injection, schedule: Q01DX009 (ip), vehicle: saline with Tween-80
[14] = dose: 400.0 mg/kg/injection, schedule: Q01DX001 (ip), vehicle: saline
[15] = dose: 100.0 mg/kg/injection, schedule: Q04DX003 (ip), vehicle: saline
[16] = dose: 200.0 mg/kg/injection, schedule: Q04DX003 (ip), vehicle: saline
[17] = dose: 100.0 mg/kg/injection, schedule: Q04DX002 (ip), vehicle: Klucel (hydroxypropylcellulose) (HPC)
[18] = dose: 200.0 mg/kg/injection, schedule: Q04DX002 (ip), vehicle: Klucel (hydroxypropylcellulose) (HPC)
[19] = dose: 400.0 mg/kg/injection, schedule: Q04DX002 (ip), vehicle: Klucel (hydroxypropylcellulose) (HPC)
[20] = dose: 100.0 mg/kg/injection, schedule: Q01DX009 (ip), vehicle: Klucel (hydroxypropylcellulose) (HPC)
[21] = dose: 200.0 mg/kg/injection, schedule: Q01DX009 (ip), vehicle: Klucel (hydroxypropylcellulose) (HPC)
[22] = dose: 100.0 mg/kg/injection, schedule: Q01DX001 (ip), vehicle: saline with Tween-80
[23] = dose: 200.0 mg/kg/injection, schedule: Q01DX001 (ip), vehicle: saline with Tween-80
[24] = dose: 400.0 mg/kg/injection, schedule: Q01DX001 (ip), vehicle: saline with Tween-80

Measured: T/C

Cc1cccc(NC(=O)Nc2ccc(Cl)cc2)c1C
inactive: dose: 100.0 mg/kg/injection, schedule: Q01DX009 (ip), vehicle: gum acacia 100 % of control | dose: 100.0 mg/kg/injection, schedule: Q04DX003 (ip), vehicle: gum acacia 95 % of control | dose: 200.0 mg/kg/injection, schedule: Q01DX009 (ip), vehicle: gum acacia 100 % of control | dose: 200.0 mg/kg/injection, schedule: Q04DX003 (ip), vehicle: gum acacia 95 % of control | dose: 400.0 mg/kg/injection, schedule: Q01DX009 (ip), vehicle: gum acacia 92 % of control | dose: 400.0 mg/kg/injection, schedule: Q04DX003 (ip), vehicle: gum acacia 97 % of control

O=C(CCC(=O)OCCBr)OCCBr
inactive: dose: 100.0 mg/kg/injection, schedule: Q04DX003 (ip), vehicle: Klucel (hydroxypropylcellulose) (HPC) 110 % of control | dose: 200.0 mg/kg/injection, schedule: Q04DX003 (ip), vehicle: Klucel (hydroxypropylcellulose) (HPC) 102 % of control

CC(C)n1cc(C(=O)c2ccccc2)cc1-c1ccccc1
inactive: [1] 93 % of control | [2] 89 % of control | [3] 97 % of control

O=C(NC1=NCCS1)C(=O)NC1=NCCS1
inactive: [4] 105 % of control | [5] 100 % of control | dose: 400.0 mg/kg/injection, schedule: Q04DX003 (ip), vehicle: saline with Tween-80 97 % of control

c1ccc(C2COC3(CCCCC3)O2)cc1 (configuration not stated)
inactive: dose: 222.0 mg/kg/injection, schedule: Q01DX Z (ip), vehicle: methylcellulose (MC) 90 % of control | dose: 333.0 mg/kg/injection, schedule: Q01DX Z (ip), vehicle: methylcellulose (MC) 95 % of control

c1ccc(CCNCc2ccc(CNCCc3ccccc3)cc2)cc1
inactive: [4] 93 % of control | [5] 90 % of control

O=C1C=C(c2ccccc2)C(=O)c2ccccc21
inactive: [6] 106 % of control | [7] 101 % of control | [8] 105 % of control

CN(C)C(=O)Sc1ccc(C(C)(C)C)cc1
inactive: [6] 95 % of control | [7] 90 % of control | [8] 112 % of control

C(=C\c1ccc2ccccc2n1)/c1ccccc1
inactive: [9] 119 % of control | [10] 103 % of control | [11] 94 % of control | [12] 106 % of control | [13] 109 % of control | [14] 109 % of control

O=C(Cc1ccccc1)Nc1ccc[n+](Cc2ccc(S(=O)(=O)F)cc2)c1
inactive: [15] 108 % of control and 122 % of control | [16] 113 % of control and 114 % of control

O=C(O)/C=C/c1ccncc1
inactive: dose: 100.0 mg/kg/injection, schedule: Q01DX001 (ip), vehicle: other 103 % of control | [17] 93 % of control | [15] 103 % of control | dose: 200.0 mg/kg/injection, schedule: Q01DX001 (ip), vehicle: other 105 % of control | [18] 86 % of control | [16] 92 % of control | dose: 400.0 mg/kg/injection, schedule: Q01DX001 (ip), vehicle: other 97 % of control | [19] 93 % of control

CCC1(CC)NC(=O)N(CCO)C1=O
inactive: dose: 50.0 mg/kg/injection, schedule: Q04DX003 (ip), vehicle: saline 110 % of control | [15] 95 % of control | [16] 106 % of control | dose: 400.0 mg/kg/injection, schedule: Q04DX003 (ip), vehicle: saline 105 % of control

Nc1cc(Nc2cccc(Br)c2)nc(N)n1
inactive: [17] 97 % of control | [18] 108 % of control

Cc1cc2ccccc2oc1=O
inactive: dose: 25.0 mg/kg/injection, schedule: Q01DX009 (ip), vehicle: saline with Tween-80 101 % of control | dose: 25.0 mg/kg/injection, schedule: Q04DX003 (ip), vehicle: saline with Tween-80 98 % of control | [9] 114 % of control | dose: 50.0 mg/kg/injection, schedule: Q04DX003 (ip), vehicle: saline with Tween-80 93 % of control | [11] 107 % of control | [4] 86 % of control

ClC1c2ccccc2-c2nsnc2C1Cl (configuration not stated)
inactive: dose: 50.0 mg/kg/injection, schedule: Q01DX009 (ip), vehicle: Klucel (hydroxypropylcellulose) (HPC) 94 % of control | [20] 87 % of control | [21] 91 % of control | [18] 92 % of control

CCCC(=O)Nc1cc(C)ccc1OC
inactive: [22] 94 % of control | [11] 101 % of control and 90 % of control | [1] 103 % of control and 92 % of control | [23] 98 % of control | [13] 101 % of control and 106 % of control | [2] 97 % of control and 92 % of control | [24] 94 % of control | dose: 400.0 mg/kg/injection, schedule: Q01DX009 (ip), vehicle: saline with Tween-80 97 % of control and 87 % of control | [3] 95 % of control and 98 % of control

O=C(NNC(=S)Nc1ccc(S(=O)(=O)N2CCCCC2)cc1)c1ccncc1
inactive: [20] 92 % of control | [21] 92 % of control | dose: 400.0 mg/kg/injection, schedule: Q01DX009 (ip), vehicle: Klucel (hydroxypropylcellulose) (HPC) 91 % of control

O=C(O)C(=O)Nc1ncccc1C(=O)O
inactive: [17] 114 % of control | [18] 100 % of control | [19] 103 % of control

O=C1CCc2cc(Br)ccc2O1
inactive: dose: 50.0 mg/kg/injection, schedule: Q01DX001 (ip), vehicle: saline 92 % of control | [10] 103 % of control | [12] 100 % of control | [14] 100 % of control

O=C(O)C(CCCCC1CCCCC1)CCC1CCCCC1 (configuration not stated)
inactive: [22] 97 % of control | [23] 99 % of control | [24] 94 % of control

O=C=Nc1ccccc1-c1ccccc1
inactive: [1] 98 % of control | [2] 98 % of control | [3] 100 % of control

CC1(C)CC(N=Cc2ccccc2O)CC(C)(C)N1O.CC1(C)CC(N=Cc2ccccc2O)CC(C)(C)N1O.[Ni]
inactive: [4] 100 % of control
